According to patent US20230116703A1, “NOVEL ERGOLINES AND METHODS OF TREATING MOOD DISORDERS” (priority 2021, published 2023):
pEC50: −log10 of the molar value. Like-named read-outs stand apart in the source and are kept apart here.

Tests used:
5-HT2A receptor [1] = molecular target: T1, 5-HT2A receptor (Homo sapiens, UniProt P28223); test: cell-based; type: cell-based; settings: for pEC50: Ca^2+ flux, agonist, read-out: 5-HT2A EC50
T1 construct: host or cells: HEK293

5-HT1A receptor = molecular target: T2, 5-HT1A receptor (Homo sapiens, UniProt P08908); test: cell-based; settings: Ca^2+ flux, agonist; read-out: 5-HT1A EC50
T2 construct: host or cells: CHO cells
T2 sequence (P08908 1-422): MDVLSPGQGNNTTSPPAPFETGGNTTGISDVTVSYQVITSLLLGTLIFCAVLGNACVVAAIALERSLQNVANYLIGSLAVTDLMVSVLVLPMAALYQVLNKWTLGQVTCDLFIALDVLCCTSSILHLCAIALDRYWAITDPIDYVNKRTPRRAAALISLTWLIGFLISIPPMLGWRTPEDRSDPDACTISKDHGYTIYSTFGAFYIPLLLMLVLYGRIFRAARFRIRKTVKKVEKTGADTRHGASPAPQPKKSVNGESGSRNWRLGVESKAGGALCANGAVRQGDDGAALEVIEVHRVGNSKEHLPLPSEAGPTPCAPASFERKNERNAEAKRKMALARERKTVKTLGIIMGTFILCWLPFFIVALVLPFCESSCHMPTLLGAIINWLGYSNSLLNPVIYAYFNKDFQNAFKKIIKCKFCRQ

5-HT2B receptor = molecular target: T3, 5-HT2B receptor (Homo sapiens, UniProt P41595); test: cell-based; settings: Ca^2+ flux, agonist; for pEC50: read-out: 5-HT2B EC50
T3 construct: host or cells: HEK293

5-HT2A receptor [2] = molecular target: T1, 5-HT2A receptor; test: PathHunter beta-arrestin recruitment assay at 5-HT2A; type: cell-based; settings: for agonist type in arrestin recruitment assay (in words): 5-HT2A beta-arrestin
Summary of the method: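 Cells co-express PK-tagged 5-HT2A and beta-arrestin fused to a beta-galactosidase deletion mutant, so arrestin recruitment restores enzyme activity, read by chemiluminescence; cells were held at 37° C before testing. Agonist % activity = RLU over vehicle, relative to the maximal control ligand.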

Alpha2A receptor = molecular target: T4, Alpha2A receptor (Homo sapiens, UniProt P08913); test: FLIPR Ca^2+ flux agonist assay at Alpha2A; type: cell-based
T4 sequence (P08913 1-465): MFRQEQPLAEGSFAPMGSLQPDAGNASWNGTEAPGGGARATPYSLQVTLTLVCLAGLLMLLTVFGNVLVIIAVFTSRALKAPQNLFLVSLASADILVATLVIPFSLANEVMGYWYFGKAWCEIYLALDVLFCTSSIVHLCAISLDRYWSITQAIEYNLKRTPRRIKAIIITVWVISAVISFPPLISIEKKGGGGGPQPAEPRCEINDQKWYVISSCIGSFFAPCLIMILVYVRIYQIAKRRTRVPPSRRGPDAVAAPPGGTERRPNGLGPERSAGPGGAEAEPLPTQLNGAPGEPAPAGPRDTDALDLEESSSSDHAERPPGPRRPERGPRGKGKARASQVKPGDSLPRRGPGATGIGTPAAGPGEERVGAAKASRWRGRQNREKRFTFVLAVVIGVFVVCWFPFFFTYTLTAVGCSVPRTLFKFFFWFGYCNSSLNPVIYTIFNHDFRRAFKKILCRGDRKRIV
Method: (§1) Functional Assays at Adrenergic and Dopamine Receptors. Agonist activity at Alpha1A, Alpha2A, D1, and D2 receptors was determined using a FLIPR Ca^2+ flux assay at WuXi AppTec (Hong Kong) Limited according to their standard protocols. Briefly, stably transfected cells expressing the receptor of interest were grown and plated in a 384 well plate and incubated at 37° C. and 5% CO2 overnight. A solution of 250 mM probenecid in 1 mL FLIPR assay buffer was prepared fresh. This was combined with a fluorescent dye (Fluo-4 Direct™) to make a final assay concentration of 2.5 mM. […] The fluorescent dye was then added to the assay plate along with assay buffer to a final volume of 40 μL. The cell plate was incubated for 50 min at 37° C. and 5% CO2 and placed into the FLIPR Tetra along with the compound plate. 10 μL of references and compounds were then transferred from the compound plate into the cell plate and the fluorescent signal was read.

D2 receptor = D2 receptor (Homo sapiens, UniProt P14416); test: FLIPR Ca^2+ flux agonist assay at D2; type: cell-based
Method: as §1

[3] = Metabolic stability in human liver microsomes (HLM); type: in vitro ADME; settings: for t1/2: 1 μM, 0.50 mg protein per mL; for microsomal CLint at 1 μM: both sexes, human, pooled human liver microsomes, pH 7.4, 0.50 mg protein per mL
Source text: HLM Stability. Pooled HLM from adult male and female donors (Corning 452117) were used.

[4] = beta-arrestin recruitment, read-out: 5-HT2A Arrestin EC50
[5] = Ca^2+ flux, agonist, read-out: Alpha 2A EC50
[6] = Ca^2+ flux, agonist, read-out: D2 EC50

T1 sequence (P28223 whole entry): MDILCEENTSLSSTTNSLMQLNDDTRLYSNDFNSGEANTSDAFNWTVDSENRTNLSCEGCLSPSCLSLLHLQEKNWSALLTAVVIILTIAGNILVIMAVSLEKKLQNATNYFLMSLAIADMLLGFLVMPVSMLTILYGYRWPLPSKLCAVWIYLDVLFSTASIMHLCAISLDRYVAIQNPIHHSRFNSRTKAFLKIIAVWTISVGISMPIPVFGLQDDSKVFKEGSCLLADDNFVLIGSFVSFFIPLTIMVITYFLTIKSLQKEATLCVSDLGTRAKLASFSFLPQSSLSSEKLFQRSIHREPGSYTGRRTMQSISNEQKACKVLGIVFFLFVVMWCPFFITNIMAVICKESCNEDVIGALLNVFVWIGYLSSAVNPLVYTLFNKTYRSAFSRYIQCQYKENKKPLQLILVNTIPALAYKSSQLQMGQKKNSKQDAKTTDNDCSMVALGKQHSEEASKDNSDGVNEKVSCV
T3 sequence (P41595 whole entry): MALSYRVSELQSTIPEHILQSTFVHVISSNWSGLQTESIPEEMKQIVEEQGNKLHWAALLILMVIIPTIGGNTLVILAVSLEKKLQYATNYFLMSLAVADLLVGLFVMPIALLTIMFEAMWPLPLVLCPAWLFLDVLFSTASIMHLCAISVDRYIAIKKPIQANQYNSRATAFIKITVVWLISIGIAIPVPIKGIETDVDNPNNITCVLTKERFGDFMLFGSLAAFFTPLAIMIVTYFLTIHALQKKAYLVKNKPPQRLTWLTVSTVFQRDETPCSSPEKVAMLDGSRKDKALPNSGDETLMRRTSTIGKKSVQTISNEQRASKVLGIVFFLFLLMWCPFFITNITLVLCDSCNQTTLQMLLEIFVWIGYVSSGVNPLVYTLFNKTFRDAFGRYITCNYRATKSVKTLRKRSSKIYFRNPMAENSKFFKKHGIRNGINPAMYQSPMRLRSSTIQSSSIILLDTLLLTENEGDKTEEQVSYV
Sequence of D2 receptor (P14416 whole entry): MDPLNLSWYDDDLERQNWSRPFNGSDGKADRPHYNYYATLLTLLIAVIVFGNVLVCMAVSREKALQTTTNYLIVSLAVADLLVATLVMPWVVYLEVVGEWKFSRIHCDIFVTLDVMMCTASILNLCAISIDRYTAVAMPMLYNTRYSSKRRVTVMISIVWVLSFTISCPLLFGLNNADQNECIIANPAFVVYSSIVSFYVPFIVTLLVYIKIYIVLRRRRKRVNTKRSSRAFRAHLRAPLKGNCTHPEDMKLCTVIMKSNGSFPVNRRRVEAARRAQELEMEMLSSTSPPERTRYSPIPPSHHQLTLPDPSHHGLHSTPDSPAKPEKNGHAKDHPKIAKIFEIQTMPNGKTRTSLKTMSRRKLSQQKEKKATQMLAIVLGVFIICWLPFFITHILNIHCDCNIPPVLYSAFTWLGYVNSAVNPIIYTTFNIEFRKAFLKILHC

Row | SMILES | pEC50 (5-HT2A receptor [1]) | pEC50 (5-HT1A receptor) | pEC50 (5-HT2B receptor) | pEC50 (5-HT2A receptor [2]) | agonist type in arrestin recruitment assay (in words) (5-HT2A receptor [2]) | pEC50 (Alpha2A receptor) | pEC50 (D2 receptor) | t1/2 [3] [min] | microsomal CLint at 1 μM [3] [µL/min/mg] | selectivity for the 5-HT2A receptor over the tested adrenergic and dopamine receptors (in words) (5-HT2A receptor [1]; Ca^2+ flux functional assays) | pEC50 (5-HT2A receptor [2]; [4]) | pEC50 (Alpha2A receptor; [5]) | pEC50 (D2 receptor; [6]) | 5-HT2B % Act @ Max Dose (5-HT2B receptor) [%]
1 | CCCN1C[C@H](C(=O)N(CC)CC)C=C2c3cccc4[nH]cc(c34)C[C@H]21 [Compound 1, (6aR,9R)—N,N-diethyl-7-propyl-4,6,6a,7,8,9-hexahydroindolo[4,3-fg]quinoline-9-carboxamide] | 7.73 | 7.35 | 6.98 | 8.70 | full agonists | 7.37 | 8.66 | 15.1 | 91.6 | – | – | – | – | –
2 | CCN(CC)C(=O)[C@@H]1C=C2c3cccc4[nH]cc(c34)C[C@H]2N(CCCF)C1 [Compound 2, (6aR,9R)—N,N-diethyl-7-(3-fluoropropyl)-4,6,6a,7,8,9-hexahydroindolo[4,3-fg]quinoline-9-carboxamide] | 7.95 | 7.60 | 6.70 | 8.64 | full agonists | 6.00 | 7.56 | 19.061 | 72.7 | – | – | – | – | –
3 | CCCN1C[C@H](C(=O)N[C@H](C)CC)C=C2c3cccc4[nH]cc(c34)C[C@H]21 [Compound 3, (6aR,9R)—N—((R)-sec-butyl)-7-propyl-4,6,6a,7,8,9-hexahydroindolo[4,3-fg]quinoline-9-carboxamide] | 8.80 | 8.75 | 7.21 | > 9.29 | full agonists | 5.44 | 7.57 | 4.2 | 331 | exceptional selectivity | – | – | – | –
4 | CCCN1C[C@H](C(=O)N2[C@@H](C)C[C@@H]2C)C=C2c3cccc4[nH]cc(c34)C[C@H]21 [Compound 4, ((2S,4S)-2,4-dimethylazetidin-1-yl)((6aR,9R)-7-propyl-4,6,6a,7,8,9-hexahydroindolo[4,3-fg]quinolin-9-yl)methanone] | 7.67 | 8.23 | 6.29 | 8.84 | full agonists | 5.97 | 7.68 | 10.6 | 130 | – | – | – | – | –
5 | CCCN1C[C@H](C(=O)NC(CC)CC)C=C2c3cccc4[nH]cc(c34)C[C@H]21 [Compound 6, (6aR,9R)—N-(pentan-3-yl)-7-propyl-4,6,6a,7,8,9-hexahydroindolo[4,3-fg]quinoline-9-carboxamide] | 7.95 | 7.44 | 6.60 | 8.72 | full agonists | – | 8.15 | 1.607 | 862 | – | – | – | – | –
6 | CCN(CC)C(=O)[C@@H]1C=C2c3cccc4[nH]cc(c34)C[C@H]2N(Cc2ccccc2OC)C1 [Compound 10, (6aR,9R)—N,N-diethyl-7-(2-methoxybenzyl)-4,6,6a,7,8,9-hexahydroindolo[4,3-fg]quinoline-9-carboxamide] | 6.19 | 4.51 | < 5.00 | – | partial agonists | – | – | 7.3 | 190 | – | 8.07 | < 4.50 | 6.01 | –
7 | CCN(CC)C(=O)[C@@H]1C=C2c3cccc4[nH]cc(c34)C[C@H]2N(CCc2ccccc2OC)C1 [Compound 11, (6aR,9R)—N,N-diethyl-7-(2-methoxyphenethyl)-4,6,6a,7,8,9-hexahydroindolo[4,3-fg]quinoline-9-carboxamide] | 6.67 | 4.53 | < 5.00 | – | partial agonists | – | – | 2.372 | 584 | – | 8.90 | < 4.50 | 6.07 | 2.5
